According to patent publication US8802661B2, “C-28 amides of modified C-3 betulinic acid derivatives as HIV maturation inhibitors” (priority 2010, dated 2014):
Read-outs that look alike come from different tables or passages of the source.

System: recombinant NL4-3 virus (Renilla luciferase in nef, Gag P373S)
Assay: HIV Cell Culture Assay (luciferase reporter virus in MT-2 cells)
Type: cell-based
Method in brief: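 MT-2 cells infected 4–5 days with NL4-3 carrying Renilla luciferase in nef and Gag P373S, with serial dilutions of inhibitor present. Antiviral activity quantified by luciferase activity, using Dual Luciferase reagents premixed with lysis buffer and read immediately.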

Structure (SMILES)	EC50 (NL43, read-out: EC50 Group)	EC50 (NL43)
C=C(C)[C@@H]1CC[C@]2(C(=O)NCc3ncc[nH]3)CC[C@]3(C)[C@H](CC[C@@H]4[C@@]5(C)CC=C(c6ccc(C(=O)O)cc6)C(C)(C)[C@@H]5CC[C@]43C)[C@@H]12 [Example 43]	< 100 nM	–
C=C(C)[C@@H]1CC[C@]2(C(=O)NC(C)c3nnc(C)[nH]3)CC[C@]3(C)[C@H](CC[C@@H]4[C@@]5(C)CC=C(c6ccc(C(=O)O)cc6)C(C)(C)[C@@H]5CC[C@]43C)[C@@H]12 (stereo partly drawn) [Example 44, 4-((1R,3aS,5aR,5bR,7aR,11aS,11bR,13aR,13bR)-5a,5b,8,8,11a-pentamethyl-3a-(1-(5-methyl-4H-1,2,4-triazol-3-yl)ethylcarbamoyl)-1-(prop-1-en-2-yl)-2,3,3a,4,5,5a,5b,6,7,7a,8,11,11a,11b,12,13,13a,13b-octadecahydro-1H-cyclopenta[a]chrysen-9-yl)benzoic acid]	< 100 nM	–
C=C(C)[C@@H]1CC[C@]2(C(=O)NCc3nc4ccccc4s3)CC[C@]3(C)[C@H](CC[C@@H]4[C@@]5(C)CC=C(c6ccc(C(=O)O)cc6)C(C)(C)[C@@H]5CC[C@]43C)[C@@H]12 [Example 45, 4-((1R,3aS,5aR,5bR,7aR,11aS,11bR,13aR,13bR)-3a-(benzo[d]thiazol-2-ylmethylcarbamoyl)-5a,5b,8,8,11a-pentamethyl-1-(prop-1-en-2-yl)-2,3,3a,4,5,5a,5b,6,7,7a,8,11,11a,11b,12,13,13a,13b-octadecahydro-1H-cyclopenta[a]chrysen-9-yl)benzoic acid]	< 100 nM	–
C=C(C)[C@@H]1CC[C@]2(C(=O)NCCN3CCCC3=O)CC[C@]3(C)[C@H](CC[C@@H]4[C@@]5(C)CC=C(c6ccc(C(=O)O)cc6)C(C)(C)[C@@H]5CC[C@]43C)[C@@H]12 [Example 46, 4-((1R,3aS,5aR,5bR,7aR,11aS,11bR,13aR,13bR)-5a,5b,8,8,11a-pentamethyl-3a-(2-(2-oxopyrrolidin-1-yl)ethylcarbamoyl)-1-(prop-1-en-2-yl)-2,3,3a,4,5,5a,5b,6,7,7a,8,11,11a,11b,12,13,13a,13b-octadecahydro-1H-cyclopenta[a]chrysen-9-yl)benzoic acid]	< 100 nM	–
C=C(C)[C@@H]1CC[C@]2(C(=O)Nc3nc(C(=O)O)c(C)s3)CC[C@]3(C)[C@H](CC[C@@H]4[C@@]5(C)CC=C(c6ccc(C(=O)O)cc6)C(C)(C)[C@@H]5CC[C@]43C)[C@@H]12 [Example 47, 2-((1R,3aS,5aR,5bR,7aR,11aS,11bR,13aR,13bR)-9-(4-carboxyphenyl)-5a,5b,8,8,11a-pentamethyl-1-(prop-1-en-2-yl)-2,3,3a,4,5,5a,5b,6,7,7a,8,11,11a,11b,12,13,13a,13b-octadecahydro-1H-cyclopenta[a]chrysene-3a-carboxamido)-5-methylthiazole-4-carboxylic acid]	–	8.7 nM
C=C(C)[C@@H]1CC[C@]2(C(=O)Nc3ncc(C)s3)CC[C@]3(C)[C@H](CC[C@@H]4[C@@]5(C)CC=C(c6ccc(C(=O)O)cc6)C(C)(C)[C@@H]5CC[C@]43C)[C@@H]12 [Example 48, 4-((1R,3aS,5aR,5bR,7aR,11aS,11bR,13aR,13bR)-5a,5b,8,8,11a-pentamethyl-3a-(5-methylthiazol-2-ylcarbamoyl)-1-(prop-1-en-2-yl)-2,3,3a,4,5,5a,5b,6,7,7a,8,11,11a,11b,12,13,13a,13b-octadecahydro-1H-cyclopenta[a]chrysen-9-yl)benzoic acid]	< 100 nM	–
C=C(C)[C@@H]1CC[C@]2(C(=O)NCCC(=O)N3CCC(C(=O)O)CC3)CC[C@]3(C)[C@H](CC[C@@H]4[C@@]5(C)CC=C(c6ccc(C(=O)O)cc6)C(C)(C)[C@@H]5CC[C@]43C)[C@@H]12 [Example 49, 1-(3-((1R,3aS,5aR,5bR,7aR,11aS,11bR,13aR,13bR)-9-(4-carboxyphenyl)-5a,5b,8,8,11a-pentamethyl-1-(prop-1-en-2-yl)-2,3,3a,4,5,5a,5b,6,7,7a,8,11,11a,11b,12,13,13a,13b-octadecahydro-1H-cyclopenta[a]chrysene-3a-carboxamido)propanoyl)piperidine-4-carboxylic acid]	< 100 nM	–
C=C(C)[C@@H]1CC[C@]2(C(=O)Nc3ncc(C(=O)O)s3)CC[C@]3(C)[C@H](CC[C@@H]4[C@@]5(C)CC=C(c6ccc(C(=O)O)cc6)C(C)(C)[C@@H]5CC[C@]43C)[C@@H]12 [Example 50, 2-((1R,3aS,5aR,5bR,7aR,11aS,11bR,13aR,13bR)-9-(4-carboxyphenyl)-5a,5b,8,8,11a-pentamethyl-1-(prop-1-en-2-yl)-2,3,3a,4,5,5a,5b,6,7,7a,8,11,11a,11b,12,13,13a,13b-octadecahydro-1H-cyclopenta[a]chrysene-3a-carboxamido)thiazole-5-carboxylic acid]	< 100 nM	–
C=C(C)[C@@H]1CC[C@]2(C(=O)Nc3nncs3)CC[C@]3(C)[C@H](CC[C@@H]4[C@@]5(C)CC=C(c6ccc(C(=O)O)cc6)C(C)(C)[C@@H]5CC[C@]43C)[C@@H]12 [Example 51, 4-((1R,3aS,5aR,5bR,7aR,11aS,11bR,13aR,13bR)-3a-(1,3,4-thiadiazol-2-ylcarbamoyl)-5a,5b,8,8,11a-pentamethyl-1-(prop-1-en-2-yl)-2,3,3a,4,5,5a,5b,6,7,7a,8,11,11a,11b,12,13,13a,13b-octadecahydro-1H-cyclopenta[a]chrysen-9-yl)benzoic acid]	< 100 nM	–
C=C(C)[C@@H]1CC[C@]2(C(=O)NCCCN(C)C(C)=O)CC[C@]3(C)[C@H](CC[C@@H]4[C@@]5(C)CC=C(c6ccc(C(=O)O)cc6)C(C)(C)[C@@H]5CC[C@]43C)[C@@H]12 [Example 52, 4-((1R,3aS,5aR,5bR,7aR,11aS,11bR,13aR,13bR)-5a,5b,8,8,11a-pentamethyl-3a-(3-(N-methylacetamido)propylcarbamoyl)-1-(prop-1-en-2-yl)-2,3,3a,4,5,5a,5b,6,7,7a,8,11,11a,11b,12,13,13a,13b-octadecahydro-1H-cyclopenta[a]chrysen-9-yl)benzoic acid]	< 100 nM	–
C=C(C)[C@@H]1CC[C@]2(C(=O)NCCCNC(C)=O)CC[C@]3(C)[C@H](CC[C@@H]4[C@@]5(C)CC=C(c6ccc(C(=O)O)cc6)C(C)(C)[C@@H]5CC[C@]43C)[C@@H]12 [Example 53, 4-((1R,3aS,5aR,5bR,7aR,11aS,11bR,13aR,13bR)-3a-(3-acetamidopropylcarbamoyl)-5a,5b,8,8,11a-pentamethyl-1-(prop-1-en-2-yl)-2,3,3a,4,5,5a,5b,6,7,7a,8,11,11a,11b,12,13,13a,13b-octadecahydro-1H-cyclopenta[a]chrysen-9-yl)benzoic acid]	< 100 nM	–
CC(C)[C@@H]1CC[C@]2(C(=O)NCCc3ccccn3)CC[C@]3(C)[C@H](CC[C@@H]4[C@@]5(C)CC[C@H](c6ccc(C(=O)O)cc6)C(C)(C)[C@@H]5CC[C@]43C)[C@@H]12 [Example 54, 4-((1S,3aS,5aR,5bR,7aS,9S,11aS,11bR,13aR,13bR)-1-isopropyl-5a,5b,8,8,11a-pentamethyl-3a-(2-(pyridin-2-yl)ethylcarbamoyl)icosahydro-1H-cyclopenta[a]chrysen-9-yl)benzoic acid]	< 100 nM	–
CC(C)[C@@H]1CC[C@]2(C(=O)NCCN(C)C)CC[C@]3(C)[C@H](CC[C@@H]4[C@@]5(C)CC[C@H](c6ccc(C(=O)O)cc6)C(C)(C)[C@@H]5CC[C@]43C)[C@@H]12 [Example 55, 4-((1S,3aS,5aR,5bR,7aS,9S,11aS,11bR,13aR,13bR)-3a-(2-(dimethylamino)ethylcarbamoyl)-1-isopropyl-5a,5b,8,8,11a-pentamethylicosahydro-1H-cyclopenta[a]chrysen-9-yl)benzoic acid]	< 100 nM	–
C=C(C)[C@@H]1CC[C@]2(C(=O)N[C@H](C(=O)O)c3ccccc3)CC[C@]3(C)[C@H](CC[C@@H]4[C@@]5(C)CC=C(c6ccc(C(=O)O)cc6)C(C)(C)[C@@H]5CC[C@]43C)[C@@H]12 [Example 56, 4-((1R,3aS,5aR,5bR,7aR,11aS,11bR,13aR,13bR)-3a-((S)-carboxy(phenyl)methylcarbamoyl)-5a,5b,8,8,11a-pentamethyl-1-(prop-1-en-2-yl)-2,3,3a,4,5,5a,5b,6,7,7a,8,11,11a,11b,12,13,13a,13b-octadecahydro-1H-cyclopenta[a]chrysen-9-yl)benzoic acid]	< 100 nM	–
C=C(C)[C@@H]1CC[C@]2(C(=O)N[C@@H](C)C(=O)O)CC[C@]3(C)[C@H](CC[C@@H]4[C@@]5(C)CC=C(c6ccc(C(=O)O)cc6)C(C)(C)[C@@H]5CC[C@]43C)[C@@H]12 [Example 57, 4-((1R,3aS,5aR,5bR,7aR,11aS,11bR,13aR,13bR)-3a-((S)-1-carboxyethylcarbamoyl)-5a,5b,8,8,11a-pentamethyl-1-(prop-1-en-2-yl)-2,3,3a,4,5,5a,5b,6,7,7a,8,11,11a,11b,12,13,13a,13b-octadecahydro-1H-cyclopenta[a]chrysen-9-yl)benzoic acid]	–	700 nM
C=C(C)[C@@H]1CC[C@]2(C(=O)N[C@@H](Cc3ccccc3)C(=O)O)CC[C@]3(C)[C@H](CC[C@@H]4[C@@]5(C)CC=C(c6ccc(C(=O)O)cc6)C(C)(C)[C@@H]5CC[C@]43C)[C@@H]12 [Example 58, 4-((1R,3aS,5aR,5bR,7aR,11aS,11bR,13aR,13bR)-3a-((S)-1-carboxy-2-phenylethylcarbamoyl)-5a,5b,8,8,11a-pentamethyl-1-(prop-1-en-2-yl)-2,3,3a,4,5,5a,5b,6,7,7a,8,11,11a,11b,12,13,13a,13b-octadecahydro-1H-cyclopenta[a]chrysen-9-yl)benzoic acid]	< 100 nM	–
C=C(C)[C@@H]1CC[C@]2(C(=O)N[C@@H](CC(C)C)C(=O)O)CC[C@]3(C)[C@H](CC[C@@H]4[C@@]5(C)CC=C(c6ccc(C(=O)O)cc6)C(C)(C)[C@@H]5CC[C@]43C)[C@@H]12 [Example 59, 4-((1R,3aS,5aR,5bR,7aR,11aS,11bR,13aR,13bR)-3a-((S)-1-carboxy-3-methylbutylcarbamoyl)-5a,5b,8,8,11a-pentamethyl-1-(prop-1-en-2-yl)-2,3,3a,4,5,5a,5b,6,7,7a,8,11,11a,11b,12,13,13a,13b-octadecahydro-1H-cyclopenta[a]chrysen-9-yl)benzoic acid]	< 100 nM	–
